Results: US10561665B2, “Treatment of autism” (priority 2014, dated 2020)
Where two headings read alike, the source gives them in different places.

How the values were obtained:
[1] = tested on: mice with lesions of the nucleus basalis magnocellularis; conditions: cited from earlier work; for increase of time remaining in the lighted compartment versus saline: nBM lesioned mice, compound given during training, optimal performance; for best dose for memory enhancement: passive avoidance, 24 hour retention
[2] = tested on: Mecp2 mice; assay: locomotor activity (photobeam) in Mecp2 mutant mice and controls; assay type: in vivo; conditions: 0.1 to 20 mg/kg
Experimental: Locomotor activity was monitored using methods described previously (Shaevitz et al. 2013 Genes Brain Behav, 12(7): 732-40. doi: 10.1111/gbb.12070). Mecp2 mutant males (between 1 and 3 months old) and females (between 3 and 6 months old) and age-matched controls were monitored for one-hour prior to and 12 hours after drug (or vehicle: 20% DMSO in saline) administration (one set of mice received IP injections and one set of mice received oral gavage) in doses that ranged from 0.1-20 mg/kg). Activity was measured across the 12-h dark cycle using a photobeam activity system (San Diego instruments, San Diego, Calif., USA). Mice were placed individually into a cage (47×25×21 cm) inside a rectangular arena equipped with a 3×8 array of photobeams. The average number of ambulatory (two adjacent) and fine (repeated single) beam breaks per hour over the 12 h was compared. [N=2 mice/group at each dose and each administration route; for the vehicle controls, N=6 WT/group; N=6 Mecp2/group]. Data were analyzed using repeated measures analysis of variance.

[3] = tested on: CaCo-2 cells; assay: in vitro permeability of a layer of CaCo-2 cells; assay type: in vitro ADME, human; conditions: predicted from CaCo-2 permeability
[4] = tested on: female Mecp2 mice; assay: novel object recognition (NOR) task in female Mecp2 mice; assay type: in vivo; conditions: Mecp2 females
Experimental: Cognitive function was assessed using the novel object recognition (NOR) task using methods previously described (Schaevitz et al. 2013). […] Novel object memory was assessed during three sessions. This task relies on the innate tendency of a mouse to explore unfamiliar objects vs. familiar objects. Testing was performed in an open-field arena. Twenty-four hours prior to training, mice were habituated to the arena for 10 min. Ninety minutes before training, the mice were administered drug or vehicle (0.1, 0.5, 1.0, 2.5 and 5.0 mg/kg IP). During training, mice were given 10 min to explore two identical Lego objects (A+A). Short- and long-term object memory were assessed in two subsequent sessions ([…]) during which mice were given 10 min to explore the familiar (A) or a novel (B or C) object. The duration of exploration (defined as the mouse's snout or forelimbs physically touching or approaching within 1 cm of an object) of familiar and novel objects was measured. The amount of time spent exploring the novel object over the total time exploring both novel and familiar objects in each session was used to measure object memory. [N=6/dose of 0.1, 0.5 and 1.0; N=1/dose of 2.5 and 5.0 mg/kg; for vehicle N=6 WT and N=6 Mecp2 mice.]
For the novel objection recognition task data, we created a matrix of all wildtype and Mecp2 females who were administered the vehicle and a second matrix comparing Mecp2 females with and without the drug (all doses combined).

[5] = tested on: mice; conditions: cited from earlier work; for adverse effects at very high doses: 50-100 mg/kg
[6] = stability in mouse plasma
[7] = tested on: cholinesterase; assay: cholinesterase inhibition (IC50); assay type: biochemical
[8] = tested on: Mecp2 mice; assay: respiratory function (plethysmograph) in Mecp2 mutant mice and controls; assay type: in vivo; conditions: IP or gavage, 0.1 to 20 mg/kg
Experimental: Respiratory function was monitored in a plethysmograph (EMKA Technologies) for 30 minutes prior to and 1 hour after drug administration (one set of mice received IP injections and one set of mice received oral gavage). [N=2 mice/group at each dose and each administration route; for the vehicle controls, N=6 WT/group; N=6 Mecp2/group]. Data were analyzed using repeated measures analysis of variance.

[9] = target: T1, α7 nicotinic receptors (Rattus norvegicus, UniProt Q05941); conditions: cited from earlier work
T1 construct: Primary cultured rat neurons can be depolarized by the application of 1.5 mM choline; endogenous in cells; host or cells: primary cultured rat neurons
T1 sequence (Q05941 23-502): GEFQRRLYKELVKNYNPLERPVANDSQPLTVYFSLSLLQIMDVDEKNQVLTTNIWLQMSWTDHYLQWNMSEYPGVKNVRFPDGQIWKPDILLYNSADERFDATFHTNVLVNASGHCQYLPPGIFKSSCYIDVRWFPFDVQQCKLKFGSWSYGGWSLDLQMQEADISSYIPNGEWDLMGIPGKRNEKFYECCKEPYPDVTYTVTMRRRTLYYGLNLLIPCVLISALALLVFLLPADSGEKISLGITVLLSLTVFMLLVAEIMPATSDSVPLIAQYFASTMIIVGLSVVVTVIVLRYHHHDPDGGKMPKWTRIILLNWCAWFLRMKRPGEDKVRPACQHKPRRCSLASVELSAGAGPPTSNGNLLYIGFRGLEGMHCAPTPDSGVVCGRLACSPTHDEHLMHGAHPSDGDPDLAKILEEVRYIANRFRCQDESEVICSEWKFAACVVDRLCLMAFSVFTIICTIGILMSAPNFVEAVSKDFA

[10] = liver microsome stability; assay type: in vitro ADME, Mouse; conditions: for half-life at 5 μM: mouse, liver microsomes
[11] = target: cholinesterase; conditions: cholinesterase inhibitor (Han et al 1991); cited from earlier work
[12] = tested on: mild cognitive impairment population; conditions: patients with mild cognitive impairment; cited from earlier work
[13] = tested on: ASD patients; conditions: case reports, open-label and poorly documented studies; cited from earlier work
[14] = human patients; cited from earlier work
[15] = tested on: patient with 15q13.3 deletion syndrome; conditions: one patient; cited from earlier work
[16] = all doses combined (0.1-5.0 mg/kg IP)
[17] = 5.0 μM, Mouse, read-out: NADPH-dependent T1/2 (half-life)
[18] = 5.0 μM, Mouse, read-out: NADPH-free T1/2 (half-life)

CCCCNC(=O)O[C@H]1C=C[C@@]23CCN(C)Cc4ccc(OC)c(c42)O[C@H]3C1 [Galantamine n-butylcarbamate, n-butylcarbamate derivative of galantamine]
increase of time remaining in the lighted compartment versus saline [1]: about 100 seconds
best dose for memory enhancement [1]: 0.5 mg/kg
tolerability ([2]; Mecp2 mice of both sexes and controls, locomotor and respiratory functions): safe and well tolerated
effect on locomotor activity ([2]; IP or gavage, Mecp2 mice of either sex): did not impair locomotor activity
predicted oral bioavailability [3]: 80%
NOR task learning versus vehicle ([4]; Chi square p=0.0321): learned the NOR task significantly better than vehicle-injected Mecp2 mice
share of mice with NOR scores = or below 0.5 [4, 16]: 65%
share of mice with NOR scores above 0.5 [4, 16]: 35%
adverse effects at very high doses ([5]; listed as n-butylcarbamate): wobbly and off-balance with rapid heart rate still present at 4 hours, but were recovered at 24 hours
adverse effects at very high doses [5]: affects cardiac and motor functions at very high doses
lethality (dose without lethality) [5]: > 100 mg/kg
stability in mouse plasma [6]: stable for greater than two hours
concentration at two hours compared with galantamine ([6]; two hours): slightly lower than those of galantamine
cholinesterase inhibitory potency relative to galantamine [7]: about 36%
effect on respiratory activity [8]: did not affect respiratory activity
effect of FK-1 antibody on the enhancement ([9]; antibody to the galantamine recognition site on nicotinic receptors): blocked by the antibody to the galantamine recognition site on nicotinic receptors, FK-1
NADPH-dependent CLint (microsomal intrinsic clearance) ([10]; 5.0 μM, Mouse): 23.5 μl min^−1 mg−^1
NADPH-free CLint (microsomal intrinsic clearance) ([10]; 5.0 μM, Mouse): 0.0 μl min^−1 mg−^1
half-life at 5 μM [10, 17]: 1.64 h
half-life at 5 μM [10, 18]: > 1 h
half-life at 5 μM ([10]; in-vitro preparation of liver microsomes, read-out: half-life in liver microsomes): > 1 h
IC50 [11]: 1090 nM

COc1ccc2c3c1O[C@H]1C[C@@H](O)C=C[C@@]31CCN(C)C2 [Galantamine]
mortality in mild cognitive impairment [12]: increased mortality
increase of time remaining in the lighted compartment versus saline [1]: about 125 seconds
best dose for memory enhancement [1]: 3 mg/kg
clinical outcome in ASD [13]: some beneficial results
plasma half-life [14]: about 7 hours
episodes of rage [15]: striking decrease in episodes of rage
enhancement of the depolarization caused by choline ([9]; 1 μM compound, 1.5 mM choline, primary cultured rat neurons): 20.6±4.2%

COc1ccc2c3c1O[C@H]1C[C@@H](O)C=C[C@@]31CCN(C)C2 [Galanthamine HBr, reference compound]
NADPH-dependent CLint (microsomal intrinsic clearance) ([10]; 5.0 μM, Mouse): 0.0 μl min^−1 mg−^1
NADPH-free CLint (microsomal intrinsic clearance) ([10]; 5.0 μM, Mouse): 0.0 μl min^−1 mg−^1
half-life at 5 μM [10, 17]: > 1 h
half-life at 5 μM [10, 18]: > 1 h
